Experimental data from PubChem BioAssay (NCI).
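Test compounds were applied to cells in 96-well plates for 48 hours at 5 doses. Here, GI50 denotes the concentration required for 50% inhibition of growth. Definition used: TGI = concentration required for complete inhibition of growth.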

Experiments:
Experiment in all cases: NCI anticancer screen, dose series, 48 h
[1] = system: OVCAR-3 ovarian
[2] = system: SK-MEL-5 melanoma
[3] = system: U251 CNS
[4] = system: MOLT-4 leukemia
[5] = system: SN12C renal
[6] = system: MDA-MB-435
[7] = system: PC-3 prostate
[8] = system: NCI-H460 lung
[9] = system: BT-549 breast
[10] = system: SK-OV-3 ovarian

Compound | TGI [1] | TGI [2] | TGI [3] | TGI [4] | TGI [5] | GI50 [1] | GI50 [6] | TGI [6] | GI50 [7] | TGI [7] | GI50 [2] | GI50 [8] | TGI [8] | GI50 [3] | GI50 [9] | TGI [9] | GI50 [4] | GI50 [5] | TGI [10] | GI50 [10]
Cc1cc2cc(Cl)ccc2nc1C(=O)c1ccccc1 | > 100 µM | > 100 µM | > 100 µM | > 100 µM | > 100 µM |  |  |  |  |  |  |  |  |  |  |  |  |  |  | 
COc1ccc(-c2cc(-c3ccc(O)cc3)nc3nc(=S)[nH]c(N)c23)cc1 | 45 µM | 31 µM | 61.1 µM | > 100 µM | 45.1 µM | 16.4 µM | 17.3 µM | 41.4 µM | 15.8 µM | 43.7 µM | 16.1 µM | 15.9 µM | 36.9 µM | 15.3 µM | 12.4 µM | 32.7 µM | 7.01 µM | 18.5 µM |  | 
COC(=O)CCC(=O)CC(=O)C(=O)Nc1ccc(F)cc1 | > 100 µM | > 100 µM | > 100 µM | > 100 µM | > 100 µM |  |  |  |  |  |  |  | > 100 µM |  |  |  |  |  | > 100 µM | 
O=C(CSc1nc2ccc([N+](=O)[O-])cc2[nH]1)Nc1cccc(Cl)c1 | 14 µM | 2.6 µM | 13.1 µM | 40.4 µM | 10.8 µM | 2.38 µM | 2.7 µM | 12.2 µM | 2.63 µM | 16.1 µM | 1.2 µM | 3.22 µM | 13.1 µM | 2.6 µM | 2.72 µM | 10.8 µM | 3.2 µM | 2.46 µM | 6.45 µM | 2.03 µM
O=C(/C=C/c1ccccn1)c1ccccc1O | 3.5 µM | 14.1 µM | 5.78 µM | 7.04 µM | 9.36 µM | 1.71 µM | 1.69 µM | 3.41 µM | 2.92 µM | 8.29 µM | 3.95 µM | 2.28 µM | 5.17 µM | 2.02 µM | 2.98 µM | 9.71 µM | 2.43 µM | 2.8 µM | 17.9 µM | 5.54 µM
O=C(O)CN(CC(=O)O)Cc1cc2c(cc1O)Oc1cc(O)c(CN(CC(=O)O)CC(=O)O)cc1C21OC(=O)c2ccccc21 | > 100 µM | > 100 µM | > 100 µM | > 100 µM | > 100 µM |  |  | > 100 µM |  | > 100 µM |  |  |  |  |  | > 100 µM |  |  | > 100 µM | 
COc1ccccc1CNCCCN1C(=O)c2ccc3c4c(ccc(c24)C1=O)C(=O)N(CCCNCCCCNCCCCN)C3=O | 5.93 µM | 2.23 µM | 3.25 µM | 19.5 µM | 5.9 µM | 0.475 µM | 1.62 µM | 3.37 µM | 2.5 µM | 10.3 µM | 0.822 µM | 2.27 µM | 5.8 µM | 1.07 µM | 9.17 µM | 24.5 µM | 3.23 µM | 1.99 µM | 14.1 µM | 2.82 µM
CN(C)c1ccccc1CC(c1c[nH]c2ccccc12)c1c[nH]c2ccccc12 | 25.6 µM | 28.8 µM | 24.7 µM | 21.7 µM | 12.7 µM |  |  |  |  |  |  |  | 16 µM |  |  |  |  |  | 33.7 µM | 
C=C1C(=O)O[C@H]2[C@H]1CC/C(COC(=O)/C=C\C(=O)NCc1ccc(Cn3c(=O)sn(-c4ccc(OC)cc4)c3=O)cc1)=C\CC[C@@]1(C)O[C@@H]21 | 0.898 µM | 1.53 µM | 2.19 µM | 9.78 µM | 1.46 µM | 0.245 µM | 0.642 µM | 1.32 µM | 0.542 µM | 1.32 µM | 0.828 µM | 0.804 µM | 1.81 µM | 0.834 µM | 0.562 µM | 1.29 µM | 0.584 µM | 0.636 µM | 11.6 µM | 4.77 µM
CN(C)c1ccc(/C=C(\C#N)c2cc3ccccc3n2C)cc1 | 1.27 µM | 12.1 µM | > 100 µM | > 100 µM | > 100 µM | 0.123 µM |  |  | 0.204 µM | > 100 µM | 0.606 µM | 0.353 µM | 4.4 µM | 0.357 µM | 0.618 µM | > 100 µM | 0.32 µM | 0.482 µM | > 100 µM | 0.532 µM
O=C(Nc1ccc(Cl)c(Cl)c1)C(=O)Nn1c(=S)[nH]c2ccccc2c1=O |  | > 100 µM | > 100 µM | > 100 µM | > 100 µM |  |  |  |  |  |  |  | > 100 µM |  |  |  |  |  | > 100 µM | 
Cc1ccccc1N=Cc1ccc(N(CCC#N)S(=O)(=O)c2ccccc2)cc1 | > 100 µM | > 100 µM | > 100 µM | > 100 µM | > 100 µM |  |  |  |  |  |  |  | > 100 µM |  |  |  |  |  | > 100 µM | 
CC(C)c1ccc2c(N=Nc3ccc(S(N)(=O)=O)cc3)c(O)[nH]c2c1 | 18.6 µM | > 25 µM | > 17.4 µM | > 25 µM | > 25 µM | 6.21 µM | > 23.2 µM | > 25 µM | > 17.1 µM | > 25 µM | 9.86 µM | 5.72 µM | > 16.4 µM | 5.09 µM | 8.76 µM | > 16.4 µM | > 25 µM | > 14.8 µM | 19.3 µM | 7.22 µM
Cc1c(/C=N/NC(=O)c2ccccc2)c(=O)n(-c2ccccc2)n1C | > 100 µM |  | > 100 µM | > 100 µM | > 100 µM |  |  |  |  |  |  |  | > 100 µM |  |  |  |  |  | > 100 µM | 
COC(=O)C(/C(=N/N)C(=O)Nc1ccc(C)c(C)c1)c1nc2ccc(Cl)cc2[nH]c1=O (stereo unspecified) | > 100 µM | > 100 µM | > 100 µM | > 100 µM | > 100 µM |  |  | > 100 µM |  | > 100 µM |  |  | > 100 µM |  |  | > 100 µM |  |  | > 100 µM | 
Cn1c(=O)nc2n(-c3ccc(F)cc3)c3ccccc3nc-2c1=O | 11 µM | 25.8 µM | 71.4 µM | 62.8 µM | 56.6 µM |  |  |  |  |  |  |  | 80.7 µM |  |  |  |  |  | > 100 µM | 
Cc1ccc(C2(C)NC(=S)N(NC(N)=S)C2=S)cc1 (stereo unspecified) | > 100 µM | > 100 µM | > 100 µM | > 100 µM | > 100 µM |  |  |  |  |  |  |  | > 100 µM |  |  |  |  |  |  | 
